From patent US6710017B2, “Compositions and methods for controlling algae in recirculating water systems” (Avecia, Inc., priority 2000, dated 2004)
Where two headings read alike, the source gives them in different places.

How the values were obtained:
[1] = Margin of exposure versus NOEL (estimated total daily dose to a child in a swimming pool); conditions: for Margin of Exposure vs NOEL (Target > 100): herbicides, Table A, ratio of NOEL to estimated daily dose, 10 ppm in pool water, child 22 kg, 3 hours per day; for Margin of Exposure vs NOEL: agricultural fungicides, Table B
Experimental: The herbicide preferably has a margin of exposure versus no observed effect level (“NOEL”) value of greater than 10, more preferably greater than 50, especially greater than 80, and more especially greater than 99. The margin of exposure versus NOEL is determined by estimating the total daily dose of the herbicide to a child in a swimming pool and determining the ratio of the NOEL to this. The total daily exposure may be estimated as follows. Oral exposure is estimated by assuming that the swimmer is in the water 3 hours per day, and that the swimmer ingests 50 milliliters of pool water per hour of swimming. It is also assumed that the herbicide will be present in the pool water at a concentration of 10 parts per million, equivalent to 10 milligrams per liter of pool water. The daily oral exposure is therefore estimated as the product of the swimming duration, the ingestion rate, and the concentration in the pool water. Dermal exposure is estimated by assuming the swimmer is in the water 3 hours per day, that the total body surface area, 8800 square centimeters, is immersed in the water, and that the herbicide permeates the skin at a rate, expressed in centimeters per hour, predicted by a model for skin permeation based on chemical structure, the Skinperm model, developed by W. F. ten Berge. A short description of the Skinperm model, can be accessed at: http://home.wxs.nl/˜wtberge/, which is incorporated herein by reference. The daily dermal exposure is then estimated as the product of the permeation rate, the concentration of the herbicide in the pool water (expressed in milligrams per cubic centimeter), the swimming duration, and the total body surface area. The total daily exposure is estimated as the sum of the daily oral and daily dermal exposure. The daily dose, expressed in milligrams per kilogram bodyweight per day, is then estimated as the total daily exposure divided by an assumed body weight of 22 kilograms.

[2] = Experimental: The margin of exposure versus NOEL is determined by estimating the total daily dose of the herbicide to a child in a swimming pool and determining the ratio of the NOEL to this. The total daily exposure may be estimated as follows. Oral exposure is estimated by assuming that the swimmer is in the water 3 hours per day, and that the swimmer ingests 50 milliliters of pool water per hour of swimming. It is also assumed that the herbicide will be present in the pool water at a concentration of 10 parts per million, equivalent to 10 milligrams per liter of pool water. The daily oral exposure is therefore estimated as the product of the swimming duration, the ingestion rate, and the concentration in the pool water. Dermal exposure is estimated by assuming the swimmer is in the water 3 hours per day, that the total body surface area, 8800 square centimeters, is immersed in the water, and that the herbicide permeates the skin at a rate, expressed in centimeters per hour, predicted by a model for skin permeation based on chemical structure, the Skinperm model, developed by W. F. ten Berge. A short description of the Skinperm model, can be accessed at: http://home.wxs.nl/˜wtberge/, which is incorporated herein by reference. The daily dermal exposure is then estimated as the product of the permeation rate, the concentration of the herbicide in the pool water (expressed in milligrams per cubic centimeter), the swimming duration, and the total body surface area. The total daily exposure is estimated as the sum of the daily oral and daily dermal exposure. The daily dose, expressed in milligrams per kilogram bodyweight per day, is then estimated as the total daily exposure divided by an assumed body weight of 22 kilograms.
The margin of exposure versus RfD is determined by estimating the total daily dose of the herbicide to a child in a swimming pool, as described above, and determining the ratio of the RfD to this (i.e. margin of exposure/RfD).

[3] = test system: mustard algae; experiment: Remedial laboratory study on algae, change in turbidity; conditions: for Change in Turbidity at active agent (ppm) five days post treatment: 5 ppm: 5 ppm active ingredient; for Change in Turbidity at active agent (ppm) five days post treatment: 5 ppm / Change in Turbidity at active agent (ppm) five days post treatment: 10 ppm: initial absorbance 0.10; for Change in Turbidity at active agent (ppm) five days post treatment: 5 ppm / Change in Turbidity at active agent (ppm) five days post treatment: 10 ppm / comments (Remedial Algae Control) / water turbidity: Table 2; for Change in Turbidity at active agent (ppm) five days post treatment: 10 ppm: 10 ppm active ingredient; for water turbidity: indicating killing of the mustard algae; for Turbidity @ 5 ppm active ingredient (Change in Turbidity at five days post treatment) / Turbidity @ 10 ppm active ingredient (Change in Turbidity at five days post treatment): Table 4
[4] = test system: mustard algae; experiment: Preventative laboratory study on algae, visual growth score; conditions: for Score @ ppm active agent: 0: 0 ppm; for Score @ ppm active agent: 0 / Score @ ppm active agent: 10 / Score @ ppm active agent: 15 / Score @ 10 ppm / Score @ 15 ppm active ingredient: visual score 0 to 4, 10 days; for Score @ ppm active agent: 0 / Score @ ppm active agent: 10 / Score @ ppm active agent: 15: 27° C.; for Score @ ppm active agent: 10 / Score @ 10 ppm: 10 ppm; for Score @ ppm active agent: 15 / Score @ 15 ppm active ingredient: 15 ppm; for Comments (Preventive Algae Control): Table 1; for Score @ 10 ppm / Score @ 15 ppm active ingredient: Table 3
[5] = herbicides, Table A, 10 ppm in pool water, child 22 kg

## 6-chloro-N-methyl-N′-(1-methylethyl)-1,3,5-triazine-2,4-diamine [Norflurazon]
[1]
  Margin of Exposure vs NOEL (Target > 100): 20
[2]; [5]
  Margin of Exposure vs. RfD (Target > 1): 0.3

## CCc1cccc(CC)c1N(COC)C(=O)CCl [Alachlor, 2-chloro-2′,6′-diethyl-N-(methoxymethyl) acetanilide]
[1]
  Margin of Exposure vs NOEL (Target > 100): 13
[2]; [5]
  Margin of Exposure vs. RfD (Target > 1): 0.1

## CCNc1nc(NC(C)C)nc(SC)n1 [Ametryn, 2-ethylamino-4-isopropylamino-6-methylthio-s-triazine]
[1]
  Margin of Exposure vs NOEL (Target > 100): 25
[2]; human, 3 hours per day, 10 ppm
  Margin of Exposure vs. RfD (Target > 1): 0.02

## COC(=O)c1ccccc1CS(=O)(=O)NC(=O)Nc1nc(OC)cc(OC)n1 [Bensulfuron ME, Methyl 2-[[[[[(4,6-dimethoxypyrimidin-2-yl)amino]carbonyl]amino]sulfonyl]methyl]-benzoate]
[3]
  Change in Turbidity at active agent (ppm) five days post treatment: 5 ppm: +0.01
  Change in Turbidity at active agent (ppm) five days post treatment: 10 ppm: 0.00
  comments (Remedial Algae Control): algicidal activity
  water turbidity: decreased significantly
[1]
  Margin of Exposure vs NOEL (Target > 100): 265
[2]; human, 3 hours per day, 10 ppm
  Margin of Exposure vs. RfD (Target > 1): 2.7

## CC(C)OC(=O)Nc1cccc(Cl)c1 [Chlopropham, Isopropyl 3-chlorocarbanilate; isopropyl 3-chlorophenylcarbamate]
[1]
  Margin of Exposure vs NOEL (Target > 100): 67
[2]; human, 3 hours per day, 10 ppm
  Margin of Exposure vs. RfD (Target > 1): 0.7

## COc1nc(C)nc(NC(=O)NS(=O)(=O)c2ccccc2Cl)n1 [Chlorsulfuron, 2-chloro-N-[[(4-methoxy-6-methyl-1,3,5-triazin-2-yl)amino]carbonyl]benzenesulfonamide]
[1]
  Margin of Exposure vs NOEL (Target > 100): 67
[2]; human, 3 hours per day, 10 ppm
  Margin of Exposure vs. RfD (Target > 1): 0.7

## Cc1cc(C2CC2)nc(Nc2ccccc2)n1 [Cyprodinil, 4-cyclopropyl-6-methyl-N-phenyl-2-pyrimidinamine]
[1]
  Margin of Exposure vs NOEL: 50
[2]; human, 3 hours per day, 10 ppm
  Margin of Exposure vs. RfD: 0.5

## COc1ccc(C(=CC(=O)N2CCOCC2)c2ccc(Cl)cc2)cc1OC [Dimethomorph, (E,Z)-4-[3-(4-chlorophenyl)-3-(3,4-dimethoxyphenyl)acryloyl]morpholine]
[1]
  Margin of Exposure vs NOEL: 88
[2]; human, 3 hours per day, 10 ppm
  Margin of Exposure vs. RfD: 0.8

## CN(C)c1nc(=O)n(C2CCCCC2)c(=O)n1C [Hexazinone, 3-cyclohexyl-6-(dimethylamino)-1-methyl-1,3,5-triazine-2,4(1H,3H)-dione]
[3]
  Change in Turbidity at active agent (ppm) five days post treatment: 5 ppm: −0.03
  Change in Turbidity at active agent (ppm) five days post treatment: 10 ppm: −0.03
  comments (Remedial Algae Control): algicidal activity
  water turbidity: decreased significantly
[1]
  Margin of Exposure vs NOEL (Target > 100): 63
[2]; human, 3 hours per day, 10 ppm
  Margin of Exposure vs. RfD (Target > 1): 0.6

## CCc1cnc(C2=NC(C)(C(C)C)C(=O)N2)c(C(=O)O)c1 (stereo not shown) [Imazethapyr, 2-[4,5-dihydro-4-methyl-4-(1-methylethyl)-5-oxo-1H-imidazol-2-yl]-5ethyl-3-pyridinecarboxylic acid]
[1]
  Margin of Exposure vs NOEL (Target > 100): 3333
[2]; human, 3 hours per day, 10 ppm
  Margin of Exposure vs. RfD (Target > 1): 3.3

## CC(C)NC(=O)N1CC(=O)N(c2cc(Cl)cc(Cl)c2)C1=O [Iprodione, 3-(3,5-dichlorophenyl)-N-(1-methylethyl)-2,4-dioxo-1-imidazolidinecarboxamide]
[1]
  Margin of Exposure vs NOEL: 81
[2]; human, 3 hours per day, 10 ppm
  Margin of Exposure vs. RfD: 0.3

## COC(=O)c1ccccc1S(=O)(=O)NC(=O)Nc1nc(C)nc(OC)n1 [Metsulfuron-methyl, Methyl 2-[[[[(4-methoxy-6-methyl-1,3,5-triazin-2-yl)amino]carbonyl]amino]sulfonyl]benzoate]
[3]
  Change in Turbidity at active agent (ppm) five days post treatment: 5 ppm: +0.09
  Change in Turbidity at active agent (ppm) five days post treatment: 10 ppm: +0.06
  comments (Remedial Algae Control): Algistatic. More
[1]
  Margin of Exposure vs NOEL (Target > 100): 333
[2]; human, 3 hours per day, 10 ppm
  Margin of Exposure vs. RfD (Target > 1): 3.3

## CCSC(=O)N1CCCCCC1 [Molinate, S-ethyl hexahydro-1H-azepine-1-carbothioate]
[1]
  Margin of Exposure vs NOEL (Target > 100): 3
[2]; [5]
  Margin of Exposure vs. RfD (Target > 1): 0.03

## CSc1nc(NC(C)C)nc(NC(C)C)n1 [Prometryn, N,N′-bis(1-methylethyl)-6-(methylthio)-1,3,5-triazine-2,4-diamine]
[1]
  Margin of Exposure vs NOEL (Target > 100): 50
[2]; human, 3 hours per day, 10 ppm
  Margin of Exposure vs. RfD (Target > 1): 0.1

## CCCC(=NOCC)C1=C(O)CC(CC(C)SCC)CC1=O (stereo not shown) [Sethoxydim, 2-[1-(ethoxyimino)butyl]-5-[2-(ethylthio)propyl]-3-hydroxy-2-cyclohexen-1-one]
[1]
  Margin of Exposure vs NOEL (Target > 100): 119
[2]; [5]
  Margin of Exposure vs. RfD (Target > 1): 12

## C=CC1(C)OC(=O)N(c2cc(Cl)cc(Cl)c2)C1=O (stereo not shown) [Vinclozolin, 3-(3,5-dichlorophenyl)-5-methyl-5-vinyl-1,3-oxazolidine-2,4-dione]
[1]
  Margin of Exposure vs NOEL: 33
[2]; human, 3 hours per day, 10 ppm
  Margin of Exposure vs. RfD: 0.3

## CCc1cccc(C)c1N(C(=O)CCl)C(C)COC (stereo not shown) [metolachlor]
[3]
  Change in Turbidity at active agent (ppm) five days post treatment: 5 ppm: +0.12
  Change in Turbidity at active agent (ppm) five days post treatment: 10 ppm: +0.06
  comments (Remedial Algae Control): Algistatic. More
[4]
  Score @ ppm active agent: 0: 1
  Score @ ppm active agent: 10: 1
  Score @ ppm active agent: 15: 1
  Comments (Preventive Algae Control): very little growth

## Poly(oxyethylene(dimethylimino)-ethylene(dimethylimino)-ethylene dichloride) [Polyquat]
[3]
  Change in Turbidity at active agent (ppm) five days post treatment: 5 ppm: +0.29
  Turbidity @ 5 ppm active ingredient (Change in Turbidity at five days post treatment): +0.29
  Change in Turbidity at active agent (ppm) five days post treatment: 10 ppm: +0.28
  Turbidity @ 10 ppm active ingredient (Change in Turbidity at five days post treatment): +0.28
[4]
  Score @ ppm active agent: 0: 2
  Score @ ppm active agent: 10: 2
  Score @ 10 ppm: 2
  Score @ ppm active agent: 15: 2
  Score @ 15 ppm active ingredient: 2
  Comments (Preventive Algae Control): Bloom noticeable

## alkyl dimethyl benzylammonium chloride [ADBAC]
[3]
  Change in Turbidity at active agent (ppm) five days post treatment: 5 ppm: +0.13
  Turbidity @ 5 ppm active ingredient (Change in Turbidity at five days post treatment): +0.13
  Change in Turbidity at active agent (ppm) five days post treatment: 10 ppm: +0.03
  Turbidity @ 10 ppm active ingredient (Change in Turbidity at five days post treatment): +0.03
[3]; at 5× and 10× the EPA allowable dose
  control of the mustard algae: no control
[4]
  Score @ ppm active agent: 0: 3
  Score @ ppm active agent: 10: 3
  Score @ 10 ppm: 3
  Score @ ppm active agent: 15: 0
  Score @ 15 ppm active ingredient: 0
